Test [1] deals with T1, EP4 (Homo sapiens, UniProt P35408). The experiment in a line: EP4 binding (KI). The source says:
(§1) U.S. patent application Ser. No. 11/553,143, filed on Oct. 26, 2006, incorporated by reference herein, describes the methods used to obtain the in vitro data in the tables below.

In test [2] the target is T2, EP2 (Homo sapiens, UniProt P43116). The experiment in a line: EP2 binding (Ki).
Description: as §1

Test [3] concerns the target T2, EP2. The test can be described thus: EP2 flipr. The format is cell-based.
Description: as §1

The target in test [4] is T2, EP2. The experiment in a line: EP2 cAMP. The format is cell-based.
Description: as §1

The target in test [5] is T1, EP4. The experiment in a line: EP4 flipr. The format is cell-based.
Description: as §1

This note sets out measurements from US7498447B2, “Therapeutic compounds” (Allergan, Inc., priority 2006, dated 2009).

T2 sequence (P43116 whole entry): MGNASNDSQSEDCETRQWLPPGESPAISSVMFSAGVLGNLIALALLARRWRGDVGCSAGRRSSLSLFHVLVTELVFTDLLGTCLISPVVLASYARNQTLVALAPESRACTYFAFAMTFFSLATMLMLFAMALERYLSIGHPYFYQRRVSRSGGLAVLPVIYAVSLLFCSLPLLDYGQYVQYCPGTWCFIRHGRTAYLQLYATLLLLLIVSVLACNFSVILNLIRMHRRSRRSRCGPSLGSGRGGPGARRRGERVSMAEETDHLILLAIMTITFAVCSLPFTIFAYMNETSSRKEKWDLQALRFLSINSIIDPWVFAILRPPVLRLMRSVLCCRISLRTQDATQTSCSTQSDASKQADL
T1 sequence (P35408 whole entry): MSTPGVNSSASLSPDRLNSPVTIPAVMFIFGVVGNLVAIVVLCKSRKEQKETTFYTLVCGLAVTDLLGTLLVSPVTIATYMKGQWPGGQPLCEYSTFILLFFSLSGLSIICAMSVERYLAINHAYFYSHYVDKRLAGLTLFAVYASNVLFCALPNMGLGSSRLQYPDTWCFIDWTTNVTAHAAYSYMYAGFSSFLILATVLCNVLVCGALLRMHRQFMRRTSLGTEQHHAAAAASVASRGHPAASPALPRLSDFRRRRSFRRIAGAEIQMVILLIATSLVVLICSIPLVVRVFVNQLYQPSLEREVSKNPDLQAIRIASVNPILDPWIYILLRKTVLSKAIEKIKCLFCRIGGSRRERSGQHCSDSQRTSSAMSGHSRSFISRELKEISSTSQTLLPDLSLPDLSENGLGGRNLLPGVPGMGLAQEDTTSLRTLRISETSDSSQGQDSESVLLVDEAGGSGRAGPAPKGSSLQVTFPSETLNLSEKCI

For the compound `CCCCCC(O)c1ccc(N2CC[C@@H](Cl)[C@@H]2COCc2ccc(C(=O)O)s2)cc1` (stereo partly drawn) [5-((((2S,3R)-3-chloro-1-(4-(1-hydroxyhexyl)phenyl)pyrrolidin-2-yl)methoxy)methyl)thiophene-2-carboxylic acid], the Ki (in general, a measure of affinity in units of concentration, obtained from inhibition or displacement) at EP4 [1] is over 10000 nM; on EP2 [2] it was 1840 nM. Further, the EC50 (in general, the concentration at which the effect is half-maximal) on EP2 [3] is 2180 nM; at EP2 [4] it was 339 nM.

With `CCCC/C=C/c1ccc(N2CC[C@@H](Cl)[C@@H]2COCc2ccc(C(=O)O)s2)cc1` [5-((((2S,3R)-3-chloro-1-(4-((E)-hex-1-enyl)phenyl)pyrrolidin-2-yl)methoxy)methyl)thiophene-2-carboxylic acid], the Ki on EP4 [1] was found to be 1490 nM; at EP2 [2] it was 3010 nM. Further, the EC50 at EP2 [3] is 8420 nM; on EP2 [4], 327 nM; at EP4 [5] it was over 10000 nM.

For the compound `CCCCCC(=O)c1ccc(N2CC[C@@H](Cl)[C@@H]2COCc2ccc(C(=O)O)s2)cc1` [5-((((2S,3R)-3-chloro-1-(4-hexanoylphenyl)pyrrolidin-2-yl)methoxy)methyl)thiophene-2-carboxylic acid], the values for the inhibition constant (Ki) at EP4 [1] and at EP2 [2] were 1020 nM and 85 nM, respectively. Further, the EC50 on EP2 [3] is 3810 nM; at EP2 [4], 17 nM; on EP4 [5] it was over 10000 nM.
